How the values were obtained:
[1] = target: T1, human 5-HT1A receptor subtype (Homo sapiens, UniProt P08908); assay: 5-HT1A receptor binding, [3H]8-OH-DPAT, CHO cell membranes; details: for Ki: [3H]8-OH-DPAT 1.5 nM; for 5-HT1A, value given as %: concentration not given
T1 construct: expressed in transfected cells
T1 sequence (P08908 1-422): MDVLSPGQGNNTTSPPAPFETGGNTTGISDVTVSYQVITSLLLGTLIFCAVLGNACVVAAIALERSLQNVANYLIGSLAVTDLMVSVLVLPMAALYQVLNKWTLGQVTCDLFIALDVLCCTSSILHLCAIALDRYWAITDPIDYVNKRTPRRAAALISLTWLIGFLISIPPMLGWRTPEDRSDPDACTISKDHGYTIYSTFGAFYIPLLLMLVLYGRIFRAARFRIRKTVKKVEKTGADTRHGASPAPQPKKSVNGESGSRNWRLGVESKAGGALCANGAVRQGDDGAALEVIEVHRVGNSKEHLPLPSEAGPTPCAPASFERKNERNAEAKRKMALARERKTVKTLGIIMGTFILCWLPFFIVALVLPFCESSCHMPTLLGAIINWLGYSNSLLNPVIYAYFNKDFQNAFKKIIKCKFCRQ
Procedure: (§1) The PCR cloning of the human 5-HT1A receptor subtype from a human genomic library has been described previously Chanda et al., Mol. Pharmacol., 43:516 (1993). A stable Chinese hamster ovary cell line expressing the human 5-HT1A receptor subtype (5-HT1A.CH2O cells) was employed throughout this study. Cells were maintained in DMEM supplemented with 10% fetal calf serum, non-essential amino acids and penicillin/streptomycin.
Cells were grown to 95-100% confluency as a monolayer before membranes were harvested for binding studies. Cells were gently scraped from the culture plates, transferred to centrifuge tubes, and washed twice by centrifugation (2000 rpm for 10 min., 4° C.) in buffer (50 mM Tris; pH 7.5). The resulting pellets were aliquoted and placed at −80° C. On the day of assay, the cells were thawed on ice, and resuspended in buffer. Studies were conducted using [^3H]8-OH-DPAT as the radioligand. The binding assay was performed in 96 well microtiter plates in a final total volume of 250 μL of buffer. Competition experiments were performed by using 7 concentrations of unlabelled drug and a final ligand concentration of 1.5 nM. Non-specific binding was determined in the presence of 10 μM 5HT. Saturation analysis was conducted by using [^3H]8-OH-DPAT at concentaritions ranging from 0.3-30 nm Following a 30 minute incubation at room temperature, the reaction was terminated by the addition of ice cold buffer and rapid filtration using a M-96 Brandel Cell Harvester (Gaithersburg, Md.) through a GF/B filter presoaked for 30 minutes in 0.5% polyethylenenimine.

serotonin transporter = target: T2, serotonin transporter (Rattus norvegicus, UniProt P31652); assay: serotonin transporter affinity, 3H-paroxetine binding, frontal cortical membranes; details: for Ki: 3H-paroxetine 0.1 nM, read-out: ST (Ki, nM,)
T2 construct: frontal cortical membranes prepared from male Sprague-Dawley rats; from tissue; host or cells: rat frontal cortex membranes
T2 sequence (P31652 whole entry): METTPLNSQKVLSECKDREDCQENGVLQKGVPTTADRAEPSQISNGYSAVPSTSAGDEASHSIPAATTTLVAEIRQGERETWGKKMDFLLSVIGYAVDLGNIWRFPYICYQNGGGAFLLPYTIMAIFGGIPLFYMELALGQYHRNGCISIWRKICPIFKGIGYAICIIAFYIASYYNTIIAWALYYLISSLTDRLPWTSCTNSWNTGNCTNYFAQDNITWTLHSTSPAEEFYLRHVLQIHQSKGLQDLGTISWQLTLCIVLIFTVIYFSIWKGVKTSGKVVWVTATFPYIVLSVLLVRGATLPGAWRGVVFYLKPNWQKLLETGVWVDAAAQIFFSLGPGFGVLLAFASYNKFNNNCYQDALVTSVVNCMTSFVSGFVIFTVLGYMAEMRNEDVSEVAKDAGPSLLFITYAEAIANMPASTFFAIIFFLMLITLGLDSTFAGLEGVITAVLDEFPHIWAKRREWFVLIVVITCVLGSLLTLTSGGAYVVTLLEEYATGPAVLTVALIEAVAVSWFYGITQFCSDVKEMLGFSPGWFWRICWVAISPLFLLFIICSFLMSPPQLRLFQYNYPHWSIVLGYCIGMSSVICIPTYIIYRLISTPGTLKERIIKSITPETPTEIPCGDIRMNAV
Procedure: A protocol similar to that used by Cheetham et al., Neuropharmacol. […] Briefly, frontal cortical membranes prepared from male Sprague-Dawley rats were incubated with ^3H-paroxetine (0.1 nM) for 60 minutes at 25° C. […] All reactions are terminated by the addition of ice cold Tris buffer followed by rapid filtration using a Tom Tech filtration device to separate bound from free ^3H-paroxetine.

[2] = target: T3, human 5-HT1A receptor subtype (5-HT1A CHO cells) (Homo sapiens, UniProt P08908); assay: forskolin-stimulated cAMP formation (cAMP SPA assay); format: cell-based; details: forskolin 1 uM
T3 construct: expressed in transfected cells
T3 sequence (P08908 1-422): T1 sequence (P08908 1-422)
Procedure: as §1
The following assays were performed by incubating the cells with DMEM containing 25 mM HEPES, 5 mM theophylline and 10 μM pargyline for a period of 20 minutes at 37° C. Functional activity was assessed by treating the cells with forskolin (1 uM final concentration) followed immediately by test compound (6 concentrations) for an additional 10 minutes at 37° C. In separate experiments, 6 concentrations of antagonist were preincubated for 20 minutes prior to the addition of 10 nM 8-OH-DPAT and forskolin. The reaction was terminated by removal of the media and addition of 0.5 ml ice cold assay buffer. Plates were stored at −20° C. prior to assessment of cAMP formation by a cAMP SPA assay (Amersham).

| Compound | Ki [1] | Ki (serotonin transporter) | other results |
| --- | --- | --- | --- |
| N#Cc1ccc2[nH]cc([C@H]3CC[C@H](N4CCN(c5cc(F)cc6c5OCC6)CC4)CC3)c2c1 [Example 33b, 3-{(1,4-trans)-4-[4-(5-Fluoro-2,3-dihydro-benzofuran-7-yl)-piperazin-1-yl]-cyclohexyl}-1H-indole-5-carbonitrile] | 0.0192 µM | 45 nM |  |
| c1cc(N2CCN([C@H]3CC[C@@H](c4c[nH]c5ncccc54)CC3)CC2)c2cc[nH]c2c1 [Example 10a, 3-{(1,4-cis)-4-[4-(1H-Indole-4-yl)-piperazin-1-yl]-cyclohexyl}-1H-pyrrolo[2,3-b]pyridine] | 0.0158 µM |  | Emax [2]: 0% |
| Fc1cc2c(c(N3CCN([C@H]4CC[C@@H](c5c[nH]c6ccc(F)cc65)CC4)CC3)c1)OCC2 [Example 32a, 5-Fluoro-3-{(1,4-cis)-4-[4-(5-fluoro-2,3-dihydro-benzofuran-7-yl)-piperazin-1-yl]-cyclohexyl}-1H-indole] | 0.246 µM | 14 nM |  |
| Fc1ccc2[nH]cc([C@H]3CC[C@H](N4CCN(c5cccc6c5OCCO6)CC4)CC3)c2c1 [Example 24b, 3-{(1,4-trans)-4-[4-(2,3-Dihydro-benzo[1,4]dioxin-5-yl)-piperazin-1-yl]-cyclohexyl}-5-fluoro-1H-indole] | 0.0113 µM | 36 nM |  |
| Cn1cc([C@H]2CC[C@@H](N3CCN(c4cccc5[nH]ccc45)CC3)CC2)c2cc(F)ccc21 [Example 38, 5-Fluoro-3-{cis-4-[4-(1H-indol-4-yl)-piperazinyl]-cyclohexyl}-1-methyl-1H-indole] | 0.124 µM | 7.22 nM |  |
| Cn1cc([C@H]2CC[C@@H](N3CCN(c4cccc5cccnc45)CC3)CC2)c2cc(C#N)ccc21 [Example 30, 1-Methyl-3-[(1,4-cis)-4-(4-quinolin-8-yl-piperazin-1-yl)-cyclohexyl]-1H-indole-5-carbonitrile] | 0.0245 µM | 1.25 nM | Emax [2]: 95% |
| Fc1cc2c(c(N3CCN([C@H]4CC[C@@H](c5c[nH]c6ccc(F)cc65)CC4)CC3)c1)OCCC2 [Example 31a, 5-Fluoro-3-{(1,4-cis)-4-[4-(6-fuoro-chroman-8-yl)-piperazin-1-yl]-cyclohexyl}-1H-indole] | 0.142 µM | 13 nM |  |
| N#Cc1ccc2c(c1)c([C@H]1CC[C@H](N3CCN(c4cccc5[nH]ccc45)CC3)CC1)cn2Cc1ccccc1 [Example 16b, 1-Benzyl-3-{(1,4-trans)-4-[4-(1H-indol-4-yl)-piperazin-1-yl]-cyclohexyl}-1H-indole-5-carbonitrile] |  |  | 5-HT1A, % @ 100 nM ([1]; 100 nM): 0% @; ST, % 100 nM (serotonin transporter; 100 nM): 25% |
| Cn1cc([C@H]2CC[C@@H](N3CCN(c4cccc5cccnc45)CC3)CC2)c2cc(F)ccc21 [Example 28, 8-{4-(1,4-cis)-4-[4-(5-Fluoro-1-methyl-1H-indol-3-yl)-cyclohexyl]-piperazin-1-yl}-quinoline] | 0.0251 µM | 2.02 nM |  |
| N#Cc1ccc2[nH]cc([C@H]3CC[C@H](N4CCN(c5cccc6ccoc56)CC4)CC3)c2c1 [Example 34b] | 0.00837 µM | 17 nM |  |
| N#Cc1ccc2[nH]cc([C@H]3CC[C@H](N4CCN(c5cccc6[nH]ccc56)CC4)CC3)c2c1 [Example 7b, 3-{4-[(1,4-trans)-4-(1H-Indol-4-yl)-piperazinyl-1-yl]cyclohexyl}-1H-indole-5-carbonitrile] |  | 4.19 nM | Emax [2]: 83% |
| Fc1ccc2[nH]cc([C@H]3CC[C@@H](N4CCN(c5cccc6c5OCCO6)CC4)CC3)c2c1 [Example 24a, 3-{(1,4-cis)-4-[4-(2,3-Dihydro-benzo[1,4]dioxin-5-yl)-piperazin-1-yl]-cyclohexyl}-5-fluoro-1H-indole] | 0.0657 µM | 6.9 nM | Emax [2]: 81% |
| CC(C)n1cc([C@H]2CC[C@@H](N3CCN(c4cccc5[nH]ccc45)CC3)CC2)c2cc(C#N)ccc21 [Example 15a, 3-{(1,4-cis)-4-[4-(1H-indol-4-yl)-piperazin-1-yl]-cyclohexyl}-1-isopropyl-1H-indole-5-carbonitrile] |  | 28 nM |  |
| N#Cc1ccc2[nH]cc([C@H]3CC[C@@H](N4CCN(c5cccc6cccnc56)CC4)CC3)c2c1 [Example 29a, 3-[(1,4-cis)-4-(4-Quinolin-8-yl-piperazin-1-yl)-cyclohexyl]-1H-indole-5-carbonitrile] |  | 2.25 nM | Emax [2]: 0% |
| N#Cc1ccc2[nH]cc([C@H]3CC[C@@H](N4CCN(c5cc(F)cc6c5OCC6)CC4)CC3)c2c1 [Example 33a, 3-{(1,4-cis)-4-[4-(5-Fluoro-2,3-dihydro-benzofuran-7-yl)-piperazin-1-yl]-cyclohexyl}-1H-indole-5-carbonitrile] | 0.0989 µM | 1.9 nM |  |
| N#Cc1ccc2c(c1)c([C@H]1CC[C@@H](N3CCN(c4cccc5[nH]ccc45)CC3)CC1)cn2Cc1ccccc1 [Example 16a, 1-Benzyl-3-{(1,4-cis)-4-[4-(1H-indol-4-yl)-piperazin-1-yl]-cyclohexyl}-1H-indole-5-carbonitrile] |  | 29 nM | 5-HT1A, value given as % [1]: 0% |
| COc1ccccc1C1CCN([C@H]2CC[C@@H](c3c[nH]c4ccc(F)cc43)CC2)CC1 [Example 19a, 5-Fluoro-3-{(1,4-cis)-4-[4-(2-methoxy-phenyl)-piperidin-1-yl]-cyclohexyl}-1H-indole] | 0.264 µM | 5.72 nM |  |
| COc1cc(N2CCN([C@H]3CC[C@@H](c4c[nH]c5ccc(C#N)cc54)CC3)CC2)c2ncccc2c1 [Example 44c, 3-{(1,4-cis)-4-[4-(6-Methoxy-quinolin-8-yl)-piperazin-1-yl]-cyclohexyl}-1H-indole-5-carbonitrile] | 0.021 µM | 1.5 nM |  |
| N#Cc1ccc2[nH]cc([C@H]3CC[C@@H](N4CCN(c5cccc6ccoc56)CC4)CC3)c2c1 [Example 34a] | 0.185 µM | 1.49 nM |  |
| Fc1ccc2c(c1)[nH]cc2[C@H]1CC[C@@H](N2CCN(c3cccc4c3OCCO4)CC2)CC1 [Example 25a, 3-{(1,4-cis)-4-[4-(2,3-Dihydro-benzo[1,4]dioxin-5-yl)-piperazin-1-yl]-cyclohexyl}-6-fluoro-1H-indole] | 0.0677 µM | 63 nM | Emax [2]: 0% |
| CC(C)n1cc([C@H]2CC[C@H](N3CCN(c4cccc5[nH]ccc45)CC3)CC2)c2cc(C#N)ccc21 [Example 15b, 3-{(1,4-trans)-4-[4-(1H-indol-4-yl)-piperazin-1-yl]-cyclohexyl}-1-isopropyl-1H-indole-5-carbonitrile] |  |  | ST, value given as % (serotonin transporter; concentration not given): 16% |
| Cn1cc([C@H]2CC[C@@H](N3CCN(c4cc(F)cc5c4OCC5)CC3)CC2)c2cc(C#N)ccc21 [Example 33c, 3-{(1,4-cis)-4-[4-(5-Fluoro-2,3-dihydro-benzofuran-7-yl)-piperazin-1-yl]-cyclohexyl}-1-methyl-1H-indole-5-carbonitrile] | 0.431 µM | 7.1 nM |  |
| Cn1ccc2c(N3CCN([C@H]4CC[C@@H](c5cn(C)c6ccc(C#N)cc65)CC4)CC3)cccc21 [Example 17, 1-Methyl-3-{(1,4-cis)-4-[4-(1-methyl-1H-indol-4-yl)-piperazin-1-yl]-cyclohexyl}-1H-indole-5-carbonitrile] |  | 2.5 nM | 5-HT1A, value given as % [1]: 0% |
| Fc1cc2c(c(N3CCN([C@H]4CC[C@H](c5c[nH]c6ccc(F)cc65)CC4)CC3)c1)OCC2 [Example 32b, 5-Fluoro-3-{(1,4-trans)-4-[4-(5-fluoro-2,3-dihydro-benzofuran-7-yl)-piperazin-1-yl]-cyclohexyl}-1H-indole] | 0.0491 µM |  |  |
| Fc1ccc2[nH]cc([C@H]3CC[C@H](N4CCN(c5cccc6cccnc56)CC4)CC3)c2c1 [Example 27b, 8-{4-[(1,4-trans)-4-(5-Fluoro-1H-indol-3-yl)-cyclohexyl]-piperazin-1-yl}-quinoline] | 0.00654 µM |  |  |

Reference: US6465482B2, “Arylpiperazinyl-cyclohexyl indole derivatives for the treatment of depression” (Wyeth, priority 1999, dated 2002)
